Reference: patent publication US20110130355A1, “USE OF SOPHORICOSIDE IN THE MANUFACTURE OF MEDICAMENTS” (priority 2008, published 2011)
Marks after values point to notes of the source that are not given here.

Key:
articular chondrocytes = assay: Apoptotic profiles of articular chondrocytes (TUNEL staining); assay type: in vivo, SD rats; settings: OVX rats, 11 weeks; for apoptotic cells in articular cartilage, in words: FIG. 10; for Apoptotic index of the articular chondrocytes, total: whole knee joint
Description: When a cell is undergoing apoptosis, the chromosomal DNAs are fragmented in a gradual and staged manner. The chromosomal DNAs are firstly degraded into large fragments of 50-300 kb by endogenous nucleases. Next, about 30% of the chromosomal DNAs were randomly cleaved at internucleosomal regions by the Ca^2+ and Mg^2+ dependent endonucleases to form multimers of 180˜200 bp nucleosomal DNAs. The free 3′-ends resulted from DNA double-strand break or DNA single chain gapping can be labeled by adding a derivative formed by the deoxyribonucleotide and fluorescein, peroxidase, alkaline phosphatase by the terminal deoxynucleotidyl transferase. The apoptotic cells can be detected accordingly. Such methods are generally referred to as terminal deoxynucleotidyl transferase-mediated nick end labeling.
1) Section Dewaxing: The sections were placed in an incubator at 65° C. for 3 hours, and then immersed in xylene for 5 minutes×2, in 100% ethanol for 10 min×2, in 95% ethanol for 5 min×2, in 85% ethanol for 5 minutes, in 75% ethanol for 5 minutes, and in PBS for 5 minutes×2;
2) Pre-treatment: Each of the sections was incubated with 60 μl fresh protease K (20 μg/ml) in a humidified chamber at 37° C. for 20 minutes; and then rinsed with PBS for 2 minutes×2;
3) Elimination of endogenous peroxidases: The sections were treated with 3% H2O2-methanol for 5 minutes and washed by PBS for 5 minutes×2;
4) Equilibration: Each of the sections was rinsed with 75 μl equilibration solution for 10 seconds and decanted, and the residual water was sucked off;
5) Addition of TdT enzyme: […] working solution was added to each of the sections immediately with the […] control untreated, and the sections were placed in a humidified chamber at 37° C. for 1 hour;
6) Quenching: The sections were gently shook in the quenching solution for 15 minutes, and washed by PBS for 3 minutes×3, and decanted gently;
7) Visualization: Each of the sections was incubated with 65 μl antidigoxin-perioxidase in a humidified chamber at room temperature for 30 minutes, and washed by PBS for 2 minutes×4. After incubation with sufficient amount of the perioxidase substrate (75 μl) for 3˜6 minutes, each of the sections was visualized by microscopy;
8) Counterstaining: The sections were rinsed with flowing water for 3 minutes, and subsequently stained by hematoxylin for 10 seconds, then rinsed with flowing water for 10 minutes, immersed in 95% ethanol for 10 minutes×2, immersed in 100% ethanol for 10 minutes×2; placed in xylene for 10 minutes×2; and finally mounted in neutral resin.
The average of the indices for the four regions was regarded as the total apoptotic index for the indicated knee joint, and the average of the indices obtained from two persons was regarded as the final experimental result.
The apoptotic index=number of positive cells in the field/total number of chondrocytes in the field×100%.

uterus = assay: Wet weights of uteri of ovariectomized rats; assay type: in vivo, SD rats; settings: OVX rats, 11 weeks
Experimental: OVX group and the intervention groups: The rats were anesthetized by intraperitoneal injection of 1% pentobarbital sodium at 5 ml/kg. After the onset of anesthesia, the rats were positioned face-down and dehaired at the third lumbar vertebra below the costal arch. The skin was sanitized by benzalkonium bromide and incised by about 1 cm. The subcutaneous tissue and the fascia were incised, and the muscle was bluntly separated. The peritoneum was carefully cut open. White fat was lifted carefully by using tissue forceps inserted to the abdominal cavity through the incision. The fat was gently turned over to expose the quincuncial ovary, which was then ligated by sterile 1 silk thread. The ovary was separated by cutting the oviduct by ophthalmic scissors. After hemostasis by compression, the fat was returned into the abdominal cavity. Subsequently, an incision was made on the opposite side and the same procedures were carried out to excise the ovary on the opposite side. The peritoneum, the fascia, the subcutaneous tissue, and the skin were sutured one by one. The incisions were sanitized.
The vehicle was 1% sodium carboxymethylcellulose (CMC-Na). The sham group and OVX group were administered the vehicle by gavage.
Intervention groups were administered the following formulations of active agents dissolved in the vehicle: […]
The rats were sacrificed by cervical dislocation after 11 weeks. Uteri were removed, weighted, and fixed in 4% paraformaldehyde (PFA). The whole right knee joints were removed and fixed in 4% PFA.
The rats were weighted, and then sacrificed. The uteri were removed from the rats and determined for wet weights.
Statistical analysis of variance was performed. The variance of the wet weights internal to the SHAM group was high, possibly attributing to different stages of menstrual cycle. In all groups, the body weights before the treatment were not statistically different from those after the treatment. The wet weights of uteri obtained from the ovariectomized groups were statistically different from those obtained from the SHAM group (p<0.01), indicating a successful ovariectomy.

[1] = system: carrageenan-induced edema; settings: in vivo; cited from earlier work

## O=c1c(-c2ccc(O[C@@H]3O[C@H](CO)[C@@H](O)[C@H](O)[C@H]3O)cc2)coc2cc(O)cc(O)c12 [HDA, 3-[4-(β-D-glucopyranosyl)-benzyl]5,7-dihydro-4H-1-benzopyran-4-one (4′,5,7-trihydroxylisoflavone-4′-D-glucoside)]
Articular chondrocytes; sophoricoside 20 mg/kg/day
  apoptotic cells in articular cartilage, in words: The interventions other than HAD20 decreased the apoptotic chondrocytes
  Apoptotic index of the articular chondrocytes, lateral femur: 10.269 ± 1.313^□ %
  Apoptotic index of the articular chondrocytes, lateral tibia: 12.571 ± 1.226^□□ %
  Apoptotic index of the articular chondrocytes, medial femur: 14.779 ± 1.819^□□ %
  Apoptotic index of the articular chondrocytes, medial tibia: 13.125 ± 1.891^□□ %
  Apoptotic index of the articular chondrocytes, total: 12.711 ± 1.178^□□ %
Articular chondrocytes; sophoricoside 40 mg/kg/day
  apoptotic cells in articular cartilage, in words: weaker
  Apoptotic index of the articular chondrocytes, lateral femur: 7.991 ± 0.943%
  Apoptotic index of the articular chondrocytes, lateral tibia: 7.665 ± 0.976**^□ %
  Apoptotic index of the articular chondrocytes, medial femur: 10.779 ± 1.159%
  Apoptotic index of the articular chondrocytes, medial tibia: 9.581 ± 0.760*^□ %
  Apoptotic index of the articular chondrocytes, total: 9.004 ± 0.588**^□ %
Articular chondrocytes; sophoricoside 80 mg/kg/day
  apoptotic cells in articular cartilage, in words: less than OVX group and similar to normal articular cartilage
  Apoptotic index of the articular chondrocytes, lateral femur: 5.253 ± 0.923 %
  Apoptotic index of the articular chondrocytes, lateral tibia: 5.509 ± 0.847 %
  Apoptotic index of the articular chondrocytes, medial femur: 7.410 ± 0.872 %
  Apoptotic index of the articular chondrocytes, medial tibia: 6.558 ± 1.121 %
  Apoptotic index of the articular chondrocytes, total: 6.183 ± 0.738 %
uterus; sophoricoside 10 mg/kg/day
  Wet weight of uterus: 0.143 ± 0.008 g
uterus; sophoricoside 20 mg/kg/day
  Wet weight of uterus: 0.129 ± 0.008 g
uterus; sophoricoside 40 mg/kg/day
  Wet weight of uterus: 0.162 ± 0.013 g
uterus; sophoricoside 80 mg/kg/day
  Wet weight of uterus: 0.166 ± 0.017 g
[1]
  carrageenan-induced edema: inhibit
